Laboratory results taken from the NIST ThermoML archive (doi:10.1021/je100552a).
± gives the expanded uncertainty stated by the source.

Key:
[1] = refractive index (Na D-line) (dimensionless); details: 101.33 kPa, Liquid, Standard Abbe refractometry
[2] = 101.33 kPa, Liquid; for viscosity: Capillary tube (Ostwald / Ubbelohde) method; for mass density: Vibrating tube method

Brc1ccccc1 [bromobenzene]
refractive index ([1]; 298.15 K): 1.5578 ± 0.0005
refractive index ([1]; 303.15 K): 1.5538 ± 0.0005
refractive index ([1]; 308.15 K): 1.5514 ± 0.0005
refractive index ([1]; 313.15 K): 1.5468 ± 0.0005
viscosity ([2]; 298.15 K): 1.082 ± 0.0085 mPa·s
mass density ([2]; 298.15 K): 1489.4 ± 0.7 kg/m3
viscosity ([2]; 303.15 K): 1.015 ± 0.008 mPa·s
mass density ([2]; 303.15 K): 1481.1 ± 0.7 kg/m3
viscosity ([2]; 308.15 K): 0.954 ± 0.0076 mPa·s
mass density ([2]; 308.15 K): 1475.8 ± 0.7 kg/m3
viscosity ([2]; 313.15 K): 0.878 ± 0.0071 mPa·s
mass density ([2]; 313.15 K): 1467.3 ± 0.6 kg/m3

ClCCCl [1,2-dichloroethane]
refractive index ([1]; 298.15 K): 1.4416 ± 0.0005
refractive index ([1]; 303.15 K): 1.4383 ± 0.0005
refractive index ([1]; 308.15 K): 1.4336 ± 0.0005
refractive index ([1]; 313.15 K): 1.4311 ± 0.0005
viscosity ([2]; 298.15 K): 0.7902 ± 0.0064 mPa·s
mass density ([2]; 298.15 K): 1246.7 ± 0.4 kg/m3
viscosity ([2]; 303.15 K): 0.7291 ± 0.006 mPa·s
mass density ([2]; 303.15 K): 1240.8 ± 0.4 kg/m3
viscosity ([2]; 308.15 K): 0.6739 ± 0.0056 mPa·s
mass density ([2]; 308.15 K): 1230.5 ± 0.4 kg/m3
viscosity ([2]; 313.15 K): 0.6441 ± 0.0053 mPa·s
mass density ([2]; 313.15 K): 1225.6 ± 0.4 kg/m3

Clc1ccccc1 [chlorobenzene]
refractive index ([1]; 298.15 K): 1.5222 ± 0.0005
refractive index ([1]; 303.15 K): 1.5192 ± 0.0005
refractive index ([1]; 308.15 K): 1.5163 ± 0.0005
refractive index ([1]; 313.15 K): 1.5115 ± 0.0005
viscosity ([2]; 298.15 K): 0.7568 ± 0.0062 mPa·s
mass density ([2]; 298.15 K): 1100.4 ± 0.3 kg/m3
viscosity ([2]; 303.15 K): 0.7258 ± 0.0059 mPa·s
mass density ([2]; 303.15 K): 1094.9 ± 0.3 kg/m3
viscosity ([2]; 308.15 K): 0.677 ± 0.0056 mPa·s
mass density ([2]; 308.15 K): 1089.4 ± 0.3 kg/m3
viscosity ([2]; 313.15 K): 0.624 ± 0.0052 mPa·s
mass density ([2]; 313.15 K): 1083.9 ± 0.3 kg/m3
